Among the data in US20230159527A1, “COMPOUNDS AS BCL-2 INHIBITORS” (Fochon Pharmaceuticals, Ltd., priority 2020, published 2023) are IC50 values, retold here.

Molecules are shown by their SMILES. Like-named read-outs stand apart in the source and are kept apart here.

For this assay, the system named is Toledo cells. Nature of the assay: Cell proliferation assay, Toledo cells (MTS, 72 h). Format: cell-based. The method, boiled down:
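Toledo cells (30000/well, RPMI-1640 with 10% FBS) were preincubated for 4 h. They were then exposed to nine compound concentrations from 10000 to 1.5 nM for 72 h at 37 °C, 5% CO2. MTS was added for 2 h and absorbance read at 490 nm to give IC50.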

The mark [1] stands for this setting: Homo sapiens, Toledo cells, MTS, read-out: Toledo IC50.
Setting [2] is: Toledo cells, MTS, read-out: Toledo IC50.

As a reminder, the IC50 is the concentration that inhibits the measured activity by half. As for `CC(C)c1ccccc1C1CCCN1C1CC2(CCN(c3ccc(C(=O)NS(=O)(=O)c4cc5c(c([N+](=O)[O-])c4)N[C@@H](C4CCC(F)(F)CC4)CO5)c(Oc4cnc5[nH]cc(F)c5c4)c3)CC2)C1` (single isomer, unassigned) [Example D-47, N-(((S)-3-(4,4-difluorocyclohexyl)-5-nitro-3,4-dihydro-2H-benzo [b][1,4]oxazin-7-yl)sulfonyl)-2-((3-fluoro-1H-pyrrolo[2,3-b]pyridin-5-yl)oxy)-4-(2-((R or S)-2-(2-isopropylphenyl)pyrrolidin-1-yl)-7-azaspiro[3.5]nonan-7-yl)benzamide], the IC50 under setting [1] was found to be 1 nM.
For the compound `CC(C)c1ccccc1[C@@H]1CCC[C@@H]1N1CC2(CCN(c3ccc(C(=O)NS(=O)(=O)c4cnc(NC[C@H]5CC[C@](C)(O)CC5)c([N+](=O)[O-])c4)c(Oc4cc5cc[nH]c5nc4OC4COC4)c3)CC2)C1` (single isomer, unassigned) [Example A-162, N-((6-((((1r,4r)-4-hydroxy-4-methyl-cyclohexyl)methyl)amino)-5-nitro-pyridin-3-yl)sulfonyl)-4-(2-((1S,2S or 1R,2R)-2-(2-isopropylphenyl)cyclo-pentyl)-2,7-diazaspiro[3.5]nonan-7-yl)-2-((6-(oxetan-3-yloxy)-1H-pyrrolo [2,3-b]pyridin-5-yl)oxy)benzamide], under setting [1], the IC50 is 1 nM.
With `CC(C)c1ccccc1C1(O)CCCC1N1CC2(CCN(c3ccc(C(=O)NS(=O)(=O)c4cc5c(c([N+](=O)[O-])c4)N[C@@H]([C@H]4CC[C@](C)(O)CC4)CO5)c(Oc4cnc5[nH]cc(F)c5c4)c3)CC2)C1` (stereo partly drawn) [Example D-247, 2-((3-fluoro-1H-pyrrolo[2,3-b]pyridin-5-yl)oxy)-4-(2-(2-hydroxy-2-(2-isopropylphenyl)cyclopentyl)-2,7-diazaspiro[3.5]nonan-7-yl)-N-(((S)-3-((1r,4S)-4-hydroxy-4-methylcyclohexyl)-5-nitro-3,4-dihydro-2H-benzo[b][1,4]oxazin-7-yl)sulfonyl)benzamide], the IC50 under setting [1] was 1 nM.
For the compound `CC(C)c1ccccc1C1COCCN1C1CC2(CCN(c3ccc(C(=O)NS(=O)(=O)c4cc5c(c([N+](=O)[O-])c4)S[C@@H](C4CCC(C)(O)CC4)CO5)c(Oc4cnc5[nH]cc(F)c5c4)c3)CC2)C1` (single isomer, unassigned) [Example E-6, 2-((3-fluoro-1H-pyrrolo[2,3-b]pyridin-5-yl)oxy)-N-(((S)-3-((1r,4S)-4-hydroxy-4-methylcyclohexyl)-5-nitro-2,3-dihydrobenzo [b][1,4]oxathiin-7-yl)sulfonyl)-4-(2-((R or S)-3-(2-isopropylphenyl)morpholino)-7-azaspiro[3.5]nonan-7-yl)benzamide], under setting [2], the IC50 was found to be 1 nM.
`CC(C)c1ccccc1[C@@H]1COCCN1C1CC2(CCN(c3ccc(C(=O)NS(=O)(=O)c4cnc(NC[C@H]5CC[C@](C)(O)CC5)c([N+](=O)[O-])c4)c(Oc4cnc5[nH]ccc5c4)n3)CC2)C1` (single isomer, unassigned) [Example A-145, 2-((1H-pyrrolo[2,3-b]pyridin-5-yl)oxy)-N-((6-((((1r,4r)-4-hydroxy-4-methylcyclohexyl)methyl)amino)-5-nitropyridin-3-yl)sulfonyl)-6-(2-((R or S)-3-(2-isopropylphenyl)morpholino)-7-azaspiro[3.5]nonan-7-yl)nicotina-mide]: the IC50 under setting [1] was 1 nM.
As for `CC(C)c1ccccc1[C@@H]1CCC[C@@H]1N1CC2(CCN(c3ccc(C(=O)NS(=O)(=O)c4cc5c(c([N+](=O)[O-])c4)N[C@@H]([C@H]4CC[C@](C)(O)CC4)CO5)c(Oc4cc5cc[nH]c5nc4OC[C@@H]4COCCO4)c3)CC2)C1` (single isomer, unassigned) [Example D-258, 2-((6-(((S)-1,4-dioxan-2-yl)methoxy)-1H-pyrrolo[2,3-b]pyridin-5-yl)oxy)-N-((S)-3-((1r,4S)-4-hydroxy-4-methylcyclohexyl)-5-nitro-3,4-dihydro-2H-benzo[b][1,4]oxazin-7-yl)sulfonyl)-4-(2-((1S,2S or 1R,2R)-2-(2-isopropylphenyl)cyclopentyl)-2,7-diazaspiro[3.5] nonan-7-yl)benzamide], under setting [1], the IC50 was 1 nM.
Same read-out and setting: with `CC(C)c1ccccc1[C@@H]1CCCN1C1CC2(CCN(c3ccc(C(=O)NS(=O)(=O)c4cc5c(c([N+](=O)[O-])c4)N[C@@H]([C@H]4CC[C@](C)(O)CC4)CO5)c(Oc4cc5c(F)c[nH]c5nc4Cl)c3)CC2)C1` (single isomer, unassigned) [Example D-84, 2-((6-chloro-3-fluoro-1H-pyrrolo [2,3-b]pyridin-5-yl)oxy)-N-(((S)-3-((1r,4S)-4-hydroxy-4-methylcyclohexyl)-5-nitro-3,4-dihydro-2H-benzo[b][1,4]oxazin-7-yl)sulfonyl)-4-(2-((R or S)-2-(2-isopropylphenyl)pyrrolidin-1-yl)-7-azaspiro[3.5]nonan-7-yl)benzamide] the figure was 1 nM; with `CC(C)c1ccccc1[C@@H]1CCC[C@@H]1N1CC2(CCN(c3ccc(C(=O)NS(=O)(=O)c4cnc(NC[C@H]5CC[C@](C)(O)CC5)c([N+](=O)[O-])c4)c(Oc4cc5cc[nH]c5nc4Cl)c3)CC2)C1` (relative stereo) [Example A-159, 2-((6-chloro-1H-pyrrolo[2,3-b]pyridin-5-yl)oxy)-N-((6-((((1r,4r)-4-hydroxy-4-methylcyclohexyl)methyl)amino)-_ 5-nitropyridin-3-yl)sulfonyl)-4-(2-((1S,2S or 1R,2R)-2-(2-isopropylphenyl)cyclo-pentyl)-2,7-diazaspiro[3.5]nonan-7-yl) benzamide], 1 nM; with `CC(C)c1ccccc1[C@@H]1CN(S(=O)(=O)C2CC2)CCN1C1CC2(CCN(c3ccc(C(=O)NS(=O)(=O)c4cc5c(c([N+](=O)[O-])c4)N[C@@H]([C@H]4CC[C@](C)(O)CC4)CO5)c(Oc4cnc5[nH]cc(F)c5c4)c3)CC2)C1` (single isomer, unassigned) [Example D-81, 4-(2-((R or S)-4-(cyclopropylsulfonyl)-2-(2-isopropylphenyl)piperazin-1-yl)-7-azaspiro[3.5]nonan-7-yl)-2-((3-fluoro-1H-pyrrolo[2,3-b]pyridin-5-yl)oxy)-N-(((S)-3-((1r,4S)-4-hydroxy-4-methylcyclohexyl)-5-nitro-3,4-dihydro-2H-benzo[b][1,4]oxazin-7-yl)sulfonyl)benzamide], 1 nM.
Still for that read-out and setting: with `COc1nc2[nH]ccc2cc1Oc1cc(N2CCC3(CC2)CN([C@H]2CCC[C@H]2c2ccccc2C(C)C)C3)ccc1C(=O)NS(=O)(=O)c1ccc(NC[C@H]2CC[C@](C)(O)CC2)c([N+](=O)[O-])c1` (single isomer, unassigned) [Example D-91, N-((4-((((1r,4r)-4-hydroxy-4-methylcyclohexyl)methyl)amino)-3-nitrophenyl)sulfonyl)-4-(2-((1S,2S or 1R,2R)-2-(2-isopropylphenyl)cyclopentyl)-2,7-diazaspiro[3.5]nonan-7-yl)-2-((6-methoxy-177-pyrrolo [2,3-b]pyridin-5-yl)oxy)benzamide] the figure was 1 nM; with `COCCOc1nc2[nH]ccc2cc1Oc1cc(N2CCC3(CC2)CC(N2CCC[C@H]2c2ccccc2C(C)C)C3)ccc1C(=O)NS(=O)(=O)c1cc2c(c([N+](=O)[O-])c1)N[C@@H](C[C@H]1CC[C@](C)(O)CC1)CO2` (single isomer, unassigned) [Example D-21, N-(((S)-3-(((1r,4S)-4-hydroxy-4-methylcyclohexyl)methyl)-5-nitro-3,4-dihydro-2H-benzo[b][1,4]oxazin-7-yl)sulfonyl)-4-(2-((R or S)-2-(2-isopropylphenyl)pyrrolidin-1-yl)-7-azaspiro[3.5]nonan-7-yl)-2-((6-(2-methoxyethoxy)-1H-pyrrolo[2,3-b]pyridin-5-yl)oxy) benzamide], 1 nM.
For `CC(C)c1ccccc1[C@@H]1CCC[C@@H]1N1CC2(CCN(c3ccc(C(=O)NS(=O)(=O)c4cc5c(c([N+](=O)[O-])c4)N[C@@H]([C@H]4CC[C@](C)(O)CC4)CO5)c(Oc4cnc5[nH]cc(F)c5c4)c3)CC2)C1` (single isomer, unassigned) [Example D-28b, 2-((3-fluoro-1H-pyrrolo[2,3-b]pyridin-5-yl)oxy)-N-(((S)-3-((1r,4S)-4-hydroxy-4-methylcyclohexyl)-5-nitro-3,4-dihydro-2H-benzo[b] [1,4]oxazin-7-yl)sulfonyl)-4-(2-((1S,2S or 1R,2R)-2-(2-isopropylphenyl)cyclopentyl)-2,7-diazaspiro[3.5]nonan-7-yl)benzamide], the IC50 under setting [2] was determined as 1 nM.
As to `CC(C)c1ccccc1[C@@H]1CCCN1C1CC2(CCN(c3ccc(C(=O)NS(=O)(=O)c4cc5c(c([N+](=O)[O-])c4)N[C@@H]([C@H]4CC[C@](C)(O)CC4)CO5)c(Oc4cc5cc[nH]c5nc4OCC(F)(F)F)c3)CC2)C1` (single isomer, unassigned) [Example D-58, N-(((S)-3-((1r,4S)-4-hydroxy-4-methylcyclohexyl)-5-nitro-3,4-dihydro-2H-benzo[b][1,4]oxazin-7-yl)sulfonyl)-4-(2-((R or S)-2-(2-isopropylphenyl)pyrrolidin-1-yl)-7-azaspiro[3.5]nonan-7-yl)-2-((6-(2,2,2-trifluoroethoxy)-1H-pyrrolo[2,3-b]pyridin-5-yl)oxy) benzamide], the IC50 under setting [1] is 1 nM.
Take `CC(C)c1ccccc1[C@@H]1COCCN1C1CC2(CCN(c3ccc(C(=O)NS(=O)(=O)c4cc5c(c([N+](=O)[O-])c4)N[C@@H]([C@H]4CC[C@](C)(O)CC4)CO5)c(Oc4cnc5[nH]cc(Cl)c5c4)c3)CC2)C1` (single isomer, unassigned) [Example D-2, 2-((3-chloro-1H-pyrrolo[2,3-b]pyridin-5-yl)oxy)-N-(((S)-3-((1r,4S)-4-hydroxy-4-methylcyclohexyl)-5-nitro-3,4-dihydro-2H-benzo[b] [1,4]oxazin-7-yl)sulfonyl)-4-(2-((R or S)-3-(2-isopropylphenyl)morpholino)-7-azaspiro[3.5]nonan-7-yl) benzamide]: under “Homo sapiens, Toledo, read-out: Toledo IC50 (nM)”, the IC50 was found to be 1 nM.
